Earlier results as cited in US20050182128A1, “Use of anethole dithiolethione in lung cancer chemoprevention” (priority 2002, published 2005).

How the values were obtained:
metaplasia = metaplasia as intermediate endpoint biomarker; cited from earlier work
[1] = test system: glutathione-S-transferase (GST); conditions: rat model of hepatoma; p<0.01; cited from earlier work
aflatoxins = conditions: in vivo; cited from earlier work
[2] = in vivo; cited from earlier work

Row | SMILES | Chemopreventive efficacy (metaplasia) | Mean GST levels in the liver [1] | Phase I activation of aflatoxins (aflatoxins) | Phase II conjugation of aflatoxin (aflatoxins) | Toxicity in chemoprevention [2]
1 | CC1=C(/C=C/C(C)=C/C=C/C(C)=C\C(=O)O)C(C)(C)CCC1 [isotretinoin] | not found to be effective | – | – | – | –
2 | Cc1c(-c2cnccn2)ssc1=S [Oltipraz, 5-(2-pyrazinyl)-4-methyl-1,2-dithiol-3-thione] | – | statistically increased | inhibited phase I activation of aflatoxins | increased phase II conjugation of aflatoxin | too toxic for chemoprevention
3 | CC1=C(/C=C/C(C)=C/C=C/C(C)=C/C(=O)Nc2ccc(O)cc2)C(C)(C)CCC1 [N-(4-Hydroxyphenyl)retinamide] | not found to be effective | – | – | – | –
